According to patent US9376369B2, “Anti-cholesterolemic compounds and methods of use” (priority 2006, dated 2016):

How the values were obtained:
[1] = test system: human aortic smooth muscle cells; experiment: Cholesterol biosynthesis ([14C]acetate incorporation) in cultured cells with ox-LDL; type: cell-based; conditions: for hypocholesterolemic activity: purified compounds isolated from EO, cell-based bioassay
Method: Cells were incubated with aqueous extracts of O. sanctum (JH-1), EO (JH-2), W. somnifera (JH-3) and EuMil (JH-4) at concentration 500 μg/ml in medium supplemented with 100 μg/ml oxidized LDL. Cells incubated with 100 μg/ml ox-LDL served as a control. [14C] acetate (2 μCi/ml) was added and incorporation of radioactivity into cholesterol and cholesteryl esters was measured after 24 h of incubation in standard cell culture conditions. Lovastatin (10 μM) plus ox-LDL served as a positive control.
H-ASMC (×10^5) were seeded in plastic 6-well trays and grown in smooth muscle cells medium-2 (Cambrex). Incubation was pursued in a water-jacketed incubator with 5% CO2 and 95% air. After the cells reached confluence medium was replaced by plain serum-free medium. Following incubation for 24 h fresh medium, 100 μg/ml ox-LDL and various herbal fractions solubilized in 12.5% DMSO were added. Cells that were incubated with lovastatin (10 μM) served as a positive control in all experiments.
Cells were incubated with and without ox-LDL and EuMil/ingredients and [14C] acetate ([…], 24 h). Next, medium was removed; the monolayers were washed three times with PBS. Cells were extracted with hexane:isopropanol (3:2 by volume, 2×3 ml) at room temperature. The extracts were pooled in glass tubes and total lipid extract dried in nitrogen atmosphere. 1N NaOH (1 ml) was added to each tube to solubilize proteins and the incubated overnight in open air. Next, water (2 ml) was added to the air dried tubes, the contents were mixed and utilized for protein measurement using BCA protein assay kit (Pierce, Rockford, Ill.)
The total lipid extracts were dried in stream of nitrogen, re-suspended in chloroform-methanol (2:1 by volume) and applied on a HPTLC silica gel plate. Standard solutions of cholesterol, monolein, diolein, triolein, fatty acid and cholesteryl oleate (50 μg each) also were applied to the plate. The plates were developed in heptane-ether-acetic acid (85:15:1 by volume). Following development, the plates were dried in air and exposed to an X-ray film for 2-3 days at […]. After the films were developed, the HPTLC plates were immersed in iodine vapors to identify the migration of individual neutral lipid molecular species. Gel areas, corresponding to cholesterol were scraped and radioactivity was measured using Beckman liquid scintillation spectrometer. The data was expressed as counts per mg protein. The incorporation of radioactivity in cells incubated with oxidized LDL was considered as 100% (control). All experimental values in cells treated with EuMil/ingredients plus oxidized LDL were expressed as a percentage of the control. All assays were conducted in triplicate.

[2] = test system: human aortic smooth muscle cells; experiment: Measurement of the level (mass) of cholesterol in cells; type: cell-based; conditions: active fractions 5 μg/ml
Method: FIG. 9 is a graph showing the effect of active fractions from EO on cholesterol level in human ASMC. Cells were incubated with active fractions (5 μg/ml) and cholesterol mass was determined.
Following treatment cells were extracted with hexane-isopropanol 3:2 by volume as described above. The pooled extracts were dried in a stream of nitrogen and subjected to measurement of total cholesterol mass using a cholesterol kit (WAKO chemicals, VA) with cholesterol as the standard. The data was expressed as μg cholesterol per mg protein.

[3] = test system: human aortic smooth muscle cells; experiment: Cholesterol efflux ([3H]cholesterol); type: cell-based; conditions: 24 h with fractions after [3H]cholesterol labelling
[4] = test system: human aortic smooth muscle cells; experiment: Cholesterol uptake ([3H]cholesterol); type: cell-based; conditions: [3H]cholesterol 5 μCi/ml, serum-free medium, 24 h
Method: FIG. 11 is a graph showing the effect of active compounds from EO on uptake of cholesterol in human aortic smooth muscle cells. Confluent culture of cells grown in 96 well plates was incubated in serum-free medium with [3H]cholesterol (5 μCi/ml) with and without active fractions. After 24 h the uptake of cholesterol was measured by scintillation spectrometry.
Confluent culture of human aortic smooth muscle cells were pre-incubated in serum-free DMEM for 24 h. Next, fresh medium and [3H]cholesterol (5 μCi/ml) plus various herbal compounds were added. Following incubation for 24 h and 48 h, [3H]cholesterol taken up by cell was measured by solubilization in 1 M NaOH and radioactivity measured.

[5] = Behaviour of mucic acid gallates in aqueous solution; type: physicochemical; conditions: as previously reported [22]
Text: It should be noted that the mucic acid gallates derivatives 7 and 9 equilibrate in aqueous solutions as previously reported, while 1-methyl mucate-2-gallate (8) is not an artifact of the isolation procedure as it could be isolated when only ethanol, water and acetonitrile were used.

[6] = test system: H-ASMC; experiment: Cell proliferation ([3H]thymidine incorporation); type: cell-based, human
Method: Following incubation for 18 h with and without ox-LDL and EuMil/ingredients and lovastatin [3H]thymidine ([…]) was added in 96 well dishes and incubation continued for 6 h at 37° C. Next, the cells were washed and the incorporation of [3H]thymidine into DNA was measured employing scintillation spectrometry. The data was calculated as dpm/well. All experimental values were expressed as a percentage of the control values (cells incubated with ox-LDL alone).

[7] = test system: F344 rats; conditions: both sexes, 5% GA in diet, week 1 to end of 13 weeks; cited from earlier work
[8] = 10 μM plus 100 μg/ml ox-LDL, 24 h, ox-LDL alone = control

| Compound | hypocholesterolemic activity [1] | cellular mass / level of cholesterol in ASMC [2] | further results |
| --- | --- | --- | --- |
| CCOC(=O)c1cc(O)c(O)c(O)c1 [Compound 2b, ethyl gallate] | hypocholesterolemic active compounds |  |  |
| O=C(OCC(O)CO)c1cc(O)c(O)c(O)c1 (centres unmarked) [Compound 3, glycerol-1-gallate] | hypocholesterolemic active compounds |  |  |
| O=C(OC[C@H]1OC(OC(=O)c2cc(O)c(O)c(O)c2)[C@H](O)[C@@H](O)[C@@H]1O)c1cc(O)c(O)c(O)c1 (some centres unmarked) [Compound 6, glucose-1,6-digallate (DGG16)] | hypocholesterolemic active compounds | effective in decreasing cholesterol level |  |
| COC(=O)c1cc(O)c(O)c(O)c1 [Compound 2a, methyl gallate] | hypocholesterolemic active compounds |  | efflux of cholesterol from cultured H-ASMC [3]: very effective; inhibition of cholesterol uptake in H-ASMC [4]: markedly inhibit |
| mucic acid-2-gallate [Compound 7] | hypocholesterolemic active compounds | effective in decreasing cholesterol level | stability in aqueous solutions [5]: equilibrate |
| CC[C@H](C)C(=O)O[C@H]1C[C@@H](C)C=C2C=C[C@H](C)[C@H](CC[C@@H]3C[C@@H](O)CC(=O)O3)[C@H]21 [Lovastatin, lovastatin, reference compound] |  |  | biosynthesis of cholesterol compared to control [1, 8]: ~20%; biosynthesis of cholesteryl esters compared to control [1, 8]: ~50%; effect on cell proliferation [6]: did not appear to inhibit; inhibition of cholesterol uptake in H-ASMC [4]: not effective |
| COC(=O)C(OC(=O)c1cc(O)c(O)c(O)c1)C(O)C(O)C(O)C(=O)O (centres unmarked) [Compound 8, 1-methyl mucate-2-gallate] | hypocholesterolemic active compounds | effective in decreasing cholesterol level |  |
| O=C(O)c1cc(O)c(O)c(O)c1 [Compound 1, gallic acid] | hypocholesterolemic active compounds |  | body weight gain versus untreated controls [7]: significantly lower; efflux of cholesterol from cultured H-ASMC [3]: effective; efflux of cholesterol from cultured H-ASMC ([3]; listed as gallate): very effective |
| glucose-6-gallate (GG6) [Compound 5] | hypocholesterolemic active compounds | effective in decreasing cholesterol level |  |
| O=C(O[C@@H]1O[C@H](CO)[C@@H](O)[C@H](O)[C@H]1O)c1cc(O)c(O)c(O)c1 [Compound 4, glucose-1-gallate (GG1)] | hypocholesterolemic active compounds |  |  |
| O=C(OC(C(=O)O)C1OC(=O)C(O)C1O)c1cc(O)c(O)c(O)c1 (centres unmarked) [Compound 9, mucic acid 1,4-lactone 5-gallate] | hypocholesterolemic active compounds | effective in decreasing cholesterol level | stability in aqueous solutions [5]: equilibrate |
